Measurements taken from patent US12077503B2, “Substituted cyclic amides and their use as herbicides” (FMC CORPORATION, priority 2015, dated 2024).

Columns and labels:
Format in all cases: in vivo
Kochia (Kochia scoparia) [1] = experiment: Test A preemergence; settings: for Plant response rating, Kochia: 125 g ai/ha, preemergence, 0 to 100 scale (0 no effect, 100 complete control); for Kochia plant response rating (0 to 100 scale, 0 is no effect, 100 is complete control): Preemergence, 500 g ai/ha, visual injury approx. 10 d
How it was run: (§1)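 Seeds sprayed preemergence with a directed soil spray, or plants at 2 to 10 cm height and one- to two-leaf stage sprayed postemergence, with test chemicals in a non-phytotoxic solvent mixture containing surfactant, in loam soil–sand blend. Injury rated visually against untreated controls after about 10 d in greenhouse, 0 (no effect) to 100 (complete control).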

[2] = system: barnyardgrass (Echinochloa crus-galli); experiment: Test A preemergence; settings: for Plant response rating, Barnyardgrass: 125 g ai/ha, preemergence, 0 to 100 scale (0 no effect, 100 complete control); for Barnyardgrass plant response rating (0 to 100 scale, 0 is no effect, 100 is complete control): Preemergence, 500 g ai/ha, visual injury approx. 10 d
How it was run: as §1

[3] = system: giant foxtail (Setaria faberii); experiment: Test A preemergence; settings: for Plant response rating, Foxtail, Giant: 125 g ai/ha, preemergence, 0 to 100 scale (0 no effect, 100 complete control); for Foxtail, Giant plant response rating (0 to 100 scale, 0 is no effect, 100 is complete control): Preemergence, 500 g ai/ha, visual injury approx. 10 d
How it was run: as §1

[4] = system: pigweed (Amaranthus retroflexus); experiment: Test A preemergence; settings: for Plant response rating, Pigweed: 125 g ai/ha, preemergence, 0 to 100 scale (0 no effect, 100 complete control); for Pigweed plant response rating (0 to 100 scale, 0 is no effect, 100 is complete control): Preemergence, 500 g ai/ha, visual injury approx. 10 d
[5] = system: ragweed (common ragweed, Ambrosia elatior); experiment: Test A preemergence; settings: for Plant response rating, Ragweed: 125 g ai/ha, preemergence, 0 to 100 scale (0 no effect, 100 complete control); for Ragweed plant response rating (0 to 100 scale, 0 is no effect, 100 is complete control): Preemergence, 500 g ai/ha, visual injury approx. 10 d
How it was run: as §1

[6] = system: ryegrass, Italian (Italian ryegrass, Lolium multiflorum); experiment: Test A preemergence; settings: for Plant response rating, Ryegrass, Italian: 125 g ai/ha, preemergence, 0 to 100 scale (0 no effect, 100 complete control); for Ryegrass, Italian plant response rating (0 to 100 scale, 0 is no effect, 100 is complete control): Preemergence, 500 g ai/ha, visual injury approx. 10 d
How it was run: as §1

[7] = system: Galium (catchweed bedstraw, Galium aparine); experiment: Test A postemergence; settings: postemergence; for Galium plant response rating: 125 g ai/ha, visual injury rating on 0 to 100 scale (0 no effect, 100 complete control), approx. 10 d; for Plant response rating, Galium: 500 g ai/ha, 0 to 100 scale, 0 no effect, 100 complete control
How it was run: as §1

Kochia (Kochia scoparia) [8] = experiment: Test A postemergence; settings: postemergence; for Kochia plant response rating: 125 g ai/ha, visual injury rating on 0 to 100 scale (0 no effect, 100 complete control), approx. 10 d; for Plant response rating, Kochia: 500 g ai/ha, 0 to 100 scale, 0 no effect, 100 complete control
How it was run: as §1

[9] = system: barnyardgrass (Echinochloa crus-galli); experiment: Test A postemergence; settings: postemergence; for Barnyardgrass plant response rating: 125 g ai/ha, visual injury rating on 0 to 100 scale (0 no effect, 100 complete control), approx. 10 d; for Plant response rating, Barnyardgrass: 500 g ai/ha, 0 to 100 scale, 0 no effect, 100 complete control
How it was run: as §1

[10] = system: blackgrass (Alopecurus myosuroides); experiment: Test A postemergence; settings: postemergence; for Blackgrass plant response rating: 125 g ai/ha, visual injury rating on 0 to 100 scale (0 no effect, 100 complete control), approx. 10 d; for Plant response rating, Blackgrass: 500 g ai/ha, 0 to 100 scale, 0 no effect, 100 complete control
How it was run: as §1

corn (Zea mays) = experiment: Test A postemergence; settings: postemergence; for Corn plant response rating: 125 g ai/ha, visual injury rating on 0 to 100 scale (0 no effect, 100 complete control), approx. 10 d; for Plant response rating, Corn: 500 g ai/ha, 0 to 100 scale, 0 no effect, 100 complete control
How it was run: as §1

[11] = system: giant foxtail (Setaria faberii); experiment: Test A postemergence; settings: postemergence; for Foxtail, Giant plant response rating: 125 g ai/ha, visual injury rating on 0 to 100 scale (0 no effect, 100 complete control), approx. 10 d; for Plant response rating, Foxtail, Giant: 500 g ai/ha, 0 to 100 scale, 0 no effect, 100 complete control
How it was run: as §1

[12] = system: pigweed (Amaranthus retroflexus); experiment: Test A postemergence; settings: postemergence; for Pigweed plant response rating: 125 g ai/ha, visual injury rating on 0 to 100 scale (0 no effect, 100 complete control), approx. 10 d; for Plant response rating, Pigweed: 500 g ai/ha, 0 to 100 scale, 0 no effect, 100 complete control
How it was run: as §1

[13] = system: ragweed (common ragweed, Ambrosia elatior); experiment: Test A postemergence; settings: postemergence; for Ragweed plant response rating: 125 g ai/ha, visual injury rating on 0 to 100 scale (0 no effect, 100 complete control), approx. 10 d; for Plant response rating, Ragweed: 500 g ai/ha, 0 to 100 scale, 0 no effect, 100 complete control
How it was run: as §1

[14] = system: ryegrass, Italian (Italian ryegrass, Lolium multiflorum); experiment: Test A postemergence; settings: postemergence; for Ryegrass, Italian plant response rating: 125 g ai/ha, visual injury rating on 0 to 100 scale (0 no effect, 100 complete control), approx. 10 d; for Plant response rating, Ryegrass, Italian: 500 g ai/ha, 0 to 100 scale, 0 no effect, 100 complete control
How it was run: as §1

[15] = system: wheat (Triticum aestivum); experiment: Test A postemergence; settings: postemergence; for Wheat plant response rating: 125 g ai/ha, visual injury rating on 0 to 100 scale (0 no effect, 100 complete control), approx. 10 d; for Plant response rating, Wheat: 500 g ai/ha, 0 to 100 scale, 0 no effect, 100 complete control
How it was run: as §1

[16] = system: barnyardgrass (Echinochloa crus-galli); experiment: Test B flooded paddy test; settings: Flood, 250 g ai/ha; 0 to 100 scale where 0 is no effect and 100 is complete control; 13 to 15 d
How it was run: (§2)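 Flooding to 3 cm over soil accompanied treatment, which consisted of adding compound to the standing water around 2-leaf plants; depth was then maintained. Visual assessment versus controls followed at 13 to 15 d (scale 0–100, 0 meaning no effect).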

[17] = system: ducksalad (Heteranthera limosa); experiment: Test B flooded paddy test; settings: Flood, 250 g ai/ha; 0 to 100 scale where 0 is no effect and 100 is complete control; 13 to 15 d
How it was run: as §2

rice (Oryra sativa) = experiment: Test B flooded paddy test; settings: Flood, 250 g ai/ha; 0 to 100 scale where 0 is no effect and 100 is complete control; 13 to 15 d
How it was run: as §2

[18] = system: sedge, umbrella (small-flower umbrella sedge, Cyperus difformis); experiment: Test B flooded paddy test; settings: Flood, 250 g ai/ha; 0 to 100 scale where 0 is no effect and 100 is complete control; 13 to 15 d
How it was run: as §2

SMILES | Plant response rating, Kochia (Kochia (Kochia scoparia) [1]) | Kochia plant response rating (0 to 100 scale, 0 is no effect, 100 is complete control) (Kochia (Kochia scoparia) [1]) | Plant response rating, Barnyardgrass [2] | Barnyardgrass plant response rating (0 to 100 scale, 0 is no effect, 100 is complete control) [2] | Plant response rating, Foxtail, Giant [3] | Foxtail, Giant plant response rating (0 to 100 scale, 0 is no effect, 100 is complete control) [3] | Plant response rating, Pigweed [4] | Pigweed plant response rating (0 to 100 scale, 0 is no effect, 100 is complete control) [4] | Plant response rating, Ragweed [5] | Ragweed plant response rating (0 to 100 scale, 0 is no effect, 100 is complete control) [5] | Plant response rating, Ryegrass, Italian [6] | Ryegrass, Italian plant response rating (0 to 100 scale, 0 is no effect, 100 is complete control) [6] | Galium plant response rating [7] | Plant response rating, Galium [7] | Kochia plant response rating (Kochia (Kochia scoparia) [8]) | Plant response rating, Kochia (Kochia (Kochia scoparia) [8]) | Barnyardgrass plant response rating [9] | Plant response rating, Barnyardgrass [9] | Blackgrass plant response rating [10] | Plant response rating, Blackgrass [10] | other results
CN1CC(c2ccc(Cl)cc2)C(C(=O)Nc2ccccc2F)C1=O (stereo not drawn) [Compound 433] | 70 | 80 | 90 | 90 | 90 | 90 | 20 | 70 | 70 | 60 | 20 | 60 | 50 | 50 | 40 | 50 | 90 | 90 | 30 | 40 | Corn plant response rating (corn (Zea mays)): 0; Plant response rating, Corn (corn (Zea mays)): 30; Foxtail, Giant plant response rating [11]: 80; Plant response rating, Foxtail, Giant [11]: 80; Pigweed plant response rating [12]: 20; Plant response rating, Pigweed [12]: 20; Ragweed plant response rating [13]: 0; Plant response rating, Ragweed [13]: 50; Ryegrass, Italian plant response rating [14]: 30; Plant response rating, Ryegrass, Italian [14]: 60; Wheat plant response rating [15]: 30; Plant response rating, Wheat [15]: 60; Plant response rating, Barnyardgrass [16]: 70; Plant response rating, Ducksalad [17]: 98; Plant response rating, Rice (rice (Oryra sativa)): 0; Plant response rating, Sedge, Umbrella [18]: 0
CN1CC(c2ccc3c(c2)OC(F)(F)O3)C(C(=O)Nc2ccccc2F)C1=O (stereo not drawn) [Compound 441] | 70 | 80 | 90 | 90 | 90 | 90 | 50 | 70 | 30 | 80 | 70 | 80 | 50 | 50 | 40 | 70 | 80 | 90 | 50 | 80 | Corn plant response rating (corn (Zea mays)): 60; Plant response rating, Corn (corn (Zea mays)): 70; Foxtail, Giant plant response rating [11]: 80; Plant response rating, Foxtail, Giant [11]: 80; Pigweed plant response rating [12]: 40; Plant response rating, Pigweed [12]: 60; Ragweed plant response rating [13]: 20; Plant response rating, Ragweed [13]: 50; Ryegrass, Italian plant response rating [14]: 60; Plant response rating, Ryegrass, Italian [14]: 60; Wheat plant response rating [15]: 50; Plant response rating, Wheat [15]: 80; Plant response rating, Barnyardgrass [16]: 70; Plant response rating, Ducksalad [17]: 90; Plant response rating, Rice (rice (Oryra sativa)): 0; Plant response rating, Sedge, Umbrella [18]: 0
O=C1NCC(c2ccc(Br)cc2)C1C(=O)Nc1ccc(F)cc1F (stereo not drawn) [Compound 447] | 50 | 50 | 70 | 90 | 90 | 90 | 30 | 30 | 0 | 0 | 20 | 30 | 40 | 50 | 0 | 40 | 80 | 80 | 0 | 30 | Corn plant response rating (corn (Zea mays)): 0; Plant response rating, Corn (corn (Zea mays)): 0; Foxtail, Giant plant response rating [11]: 80; Plant response rating, Foxtail, Giant [11]: 80; Pigweed plant response rating [12]: 0; Plant response rating, Pigweed [12]: 30; Ragweed plant response rating [13]: 0; Plant response rating, Ragweed [13]: 0; Ryegrass, Italian plant response rating [14]: 0; Plant response rating, Ryegrass, Italian [14]: 20; Wheat plant response rating [15]: 0; Plant response rating, Wheat [15]: 0; Plant response rating, Barnyardgrass [16]: 40; Plant response rating, Ducksalad [17]: 98; Plant response rating, Rice (rice (Oryra sativa)): 0; Plant response rating, Sedge, Umbrella [18]: 0
O=C1NCC(c2ccc(Br)cc2)C1C(=O)Nc1cccc(F)c1 (stereo not drawn) [Compound 449] | 20 | 40 | 50 | 90 | 80 | 90 | 0 | 20 | 0 | 0 | 20 | 0 | 0 | 50 | 20 | 40 | 30 | 80 | 0 | 20 | Corn plant response rating (corn (Zea mays)): 0; Plant response rating, Corn (corn (Zea mays)): 0; Foxtail, Giant plant response rating [11]: 30; Plant response rating, Foxtail, Giant [11]: 80; Pigweed plant response rating [12]: 0; Plant response rating, Pigweed [12]: 20; Ragweed plant response rating [13]: 0; Plant response rating, Ragweed [13]: 0; Ryegrass, Italian plant response rating [14]: 0; Plant response rating, Ryegrass, Italian [14]: 20; Wheat plant response rating [15]: 0; Plant response rating, Wheat [15]: 0; Plant response rating, Barnyardgrass [16]: 40; Plant response rating, Ducksalad [17]: 98; Plant response rating, Rice (rice (Oryra sativa)): 0; Plant response rating, Sedge, Umbrella [18]: 0
O=C1NCC(c2ccc(Br)cc2)C1C(=O)Nc1ccccc1Cl (stereo not drawn) [Compound 453] | 0 | 30 | 80 | 90 | 90 | 90 | 20 | 30 | 0 | 20 | 0 | 0 | 30 | 40 | 20 | 30 | 80 | 80 | 0 | 30 | Corn plant response rating (corn (Zea mays)): 0; Plant response rating, Corn (corn (Zea mays)): 40; Foxtail, Giant plant response rating [11]: 80; Plant response rating, Foxtail, Giant [11]: 80; Pigweed plant response rating [12]: 0; Plant response rating, Pigweed [12]: 0; Ragweed plant response rating [13]: 0; Plant response rating, Ragweed [13]: 0; Ryegrass, Italian plant response rating [14]: 0; Plant response rating, Ryegrass, Italian [14]: 0; Wheat plant response rating [15]: 0; Plant response rating, Wheat [15]: 30; Plant response rating, Barnyardgrass [16]: 30; Plant response rating, Ducksalad [17]: 95; Plant response rating, Rice (rice (Oryra sativa)): 0; Plant response rating, Sedge, Umbrella [18]: 0
